Source: patent EP0476645B1, “Calcium uptake inhibitors” (MERRELL DOW PHARMACEUTICALS INC., priority 1990, dated 1992)

Columns and labels:
Rat PMNL [1] = test: Superoxide anion (SOA) production by stimulated PMNL; format: cell-based; details: for inhibition of superoxide anion production: PMA and OZ stimulus, result in words; for inhibition at 1 µM / inhibition at 3 µM / inhibition at 10 µM / inhibition at 30 µM / inhibition at 100 µM: Rattus norvegicus, PMNL, inhibition of superoxide anion production; for inhibition at 1 µM: 1 µM compound; for inhibition at 3 µM: 3 µM compound; for inhibition at 10 µM: 10 µM compound; for inhibition at 30 µM: 30 µM compound; for inhibition at 100 µM: 100 µM compound
Procedure: (§1) Rat PMNL were obtained from exudates resulting from peritoneal injection of 6 mL of 8% sodium caseinate. Eighteen hours after injection rats were killed by carbon dioxide inhalation and the peritoneal cavity lavaged with Hank's balanced salt solution (HBSS). After concentration of the PMNL by centrifugation, contaminating erythrocytes were removed by hypotonic lysis. The PMNL were then washed twice by centrifugation (400 x g for 10 minutes) and resuspended in HBSS. Cell viability was greater than 90% by Trypan Blue exclusion and greater than 90% of the cells were PMNL by Wright-Giemsa stain.
Aliquots (50 µl) of a rat PMNL suspension (2 x 10⁷ cells/mL in HBSS) were incubated with 50 µl of HBSS containing vehicle (0.3% DMSO) or compound for 30 minutes at 37°C as above. One hundred microliters of buffer containing 5.98 mg/mL of cytochrome C (Sigma Type III) and 0.1 mg/mL catalase, plus the compounds where appropriate, were then added to each sample. A blank for spectrophotometric measurement, containing unstimulated cells in the presence of cytochrome C, catalase and SOD, was also prepared. To activate the PMNL, 75 µl of PMA or OZ were added to achieve the final concentration of cell activator (plus vehicle or inhibitor as described above for MPO release) and the cells further incubated at 37°C for 60 minutes. The activation was terminated by centrifugation at 600 x g for 5 minutes at 4°C. Aliquots (200 µl) of supernatant were then transferred to a second, flat-well microtiter plate and measured spectrophotometrically at 550 nm. […]

Rat PMNL [2] = test: Myeloperoxidase (MPO) release from stimulated PMNL; format: cell-based; details: for inhibition at 1 µM / inhibition at 3 µM / inhibition at 10 µM / inhibition at 30 µM / inhibition at 100 µM: Rattus norvegicus, PMNL, inhibition of MPO release; for inhibition at 1 µM: 1 µM compound; for inhibition at 3 µM: 3 µM compound; for inhibition at 10 µM: 10 µM compound; for inhibition at 30 µM: 30 µM compound; for inhibition at 100 µM: 100 µM compound; for inhibition of release of myeloperoxidase: fMLP with cytochalasin B, opsonized zymosan or ionomycin stimulus, result in words
Procedure: as §1
MPO release was determined using the MPO catalyzed oxidation of o-dianisidine. The experiments were carried out in 96-well microtiter plates (Webster and Henson, 1978). In each well, 50 microliter (µl) aliquots of a PMNL suspension (2 x 10⁷ cells/mL in HBSS) were incubated with 50 µl of HBSS containing vehicle (0.3% DMSO) or inhibitor for 30 minutes at 37°C. The final DMSO concentration never exceeded 0.3% and was constant throughout each experiment. To activate the PMNL, 50 µl of one of the following were added for 30 minutes at 37°C: N-formyl-Met-Leu-Phe (fMLP; 0.1 µM); phorbol myristate acetate (PMA, 200 ng/mL); or rat serum opsonized zymosan (OZ; 2.6 mg/mL, prepared by the method of Ward et al., 1983). The stimuli were added in 50 µl HBSS which also contained the compounds or vehicle, as appropriate, to avoid changing the inhibitor concentration. Cell activation was terminated by centrifugation of the plates at 600 x g for 5 minutes at 22°C. Aliquots (100 µl) of supernatant were removed from each well and transferred to a 96-well flatbottomed microtiter plate for the MPO assay. To each aliquot of supernatant was added 100 µl of a freshly prepared solution containing 50 µl of 0.2 M sodium phosphate buffer (pH 6.2), 25 µl of 3.9 mM o-dianisidine and 25 µl of 0.015 M hydrogen peroxide. Blanks were obtained using the same solution without hydrogen peroxide. The plates were mixed and then incubated at room temperature in the dark for about 15 minutes. Absorbances of the samples were measured at 450 nm.
Rat PMNL were isolated in HBSS containing Ca⁺². As summarized in the figures below, fMLP stimulation of rat PMNL in the presence of cytochalasin B or with opsonized zymosan or with ionomycin results in the release of myeloperoxidase (fMLP/MPO, OZ/MPO, and ION/MPO; columns 2, 4, and 6 respectively).

[3] = PMA stimulus, read-out: PMA/SOA
[4] = opsonized zymosan stimulus, read-out: OZ/SOA
[5] = fMLP stimulus in the presence of cytochalasin B, read-out: IMLP/MPO
[6] = ionomycin stimulus, read-out: ION/MPO
[7] = opsonized zymosan stimulus, read-out: OZ/MPO

SMILES	inhibition of superoxide anion production (Rat PMNL [1])	inhibition at 1 µM (Rat PMNL [1]; [3]) [%]	inhibition at 3 µM (Rat PMNL [1]; [3]) [%]	inhibition at 10 µM (Rat PMNL [1]; [3]) [%]	inhibition at 30 µM (Rat PMNL [1]; [3]) [%]	inhibition at 100 µM (Rat PMNL [1]; [3]) [%]	inhibition at 1 µM (Rat PMNL [1]; [4]) [%]	inhibition at 3 µM (Rat PMNL [1]; [4]) [%]	inhibition at 10 µM (Rat PMNL [1]; [4]) [%]	inhibition at 30 µM (Rat PMNL [1]; [4]) [%]	inhibition at 100 µM (Rat PMNL [1]; [4]) [%]	inhibition at 1 µM (Rat PMNL [2]; [5]) [%]	inhibition at 3 µM (Rat PMNL [2]; [5]) [%]	inhibition at 10 µM (Rat PMNL [2]; [5]) [%]	inhibition at 30 µM (Rat PMNL [2]; [5]) [%]	inhibition at 100 µM (Rat PMNL [2]; [5]) [%]	inhibition at 1 µM (Rat PMNL [2]; [6]) [%]	inhibition at 3 µM (Rat PMNL [2]; [6]) [%]	inhibition at 10 µM (Rat PMNL [2]; [6]) [%]	inhibition at 30 µM (Rat PMNL [2]; [6]) [%]	further results
O=C(C#Cc1ccncc1)c1ccccc1 [MDL 101,098, 1-Phenyl-3-(4-pyridinyl)-2-propyne-1-one]	inhibited in a dose dependent fashion	-30.7	-4.3	29.1	70	97.2	-18	-7.5	20.3	61.5	115	2.9	7.5	34.9	80.8	96.2	-2.8	0	5.7	12.7	inhibition at 100 µM (Rat PMNL [2]; [6]): 88.4%; inhibition at 1 µM (Rat PMNL [2]; [7]): 5.4%; inhibition at 3 µM (Rat PMNL [2]; [7]): 14.7%; inhibition at 10 µM (Rat PMNL [2]; [7]): 48.7%; inhibition at 30 µM (Rat PMNL [2]; [7]): 92.2%; inhibition at 100 µM (Rat PMNL [2]; [7]): 97.2%; inhibition of release of myeloperoxidase (Rat PMNL [2]): dose dependent inhibition
CN(C)c1ccc(C(=O)C#Cc2ccncc2)cc1 [MDL 102,175, 1-(4-Dimethylaminophenyl)-3-(4-pyridinyl)-2-propyne-1-one]	inhibited in a dose dependent fashion	-20.2	13.5	49.7	77.7	100	-15	15.4	44.1	75.7	89.8	12.6	27.9	70.6	104	113	0.8	1.5	21.3	20.5	inhibition at 100 µM (Rat PMNL [2]; [6]): 83.4%; inhibition at 1 µM (Rat PMNL [2]; [7]): 16.9%; inhibition at 3 µM (Rat PMNL [2]; [7]): 26.6%; inhibition at 10 µM (Rat PMNL [2]; [7]): 78.5%; inhibition at 30 µM (Rat PMNL [2]; [7]): 107%; inhibition at 100 µM (Rat PMNL [2]; [7]): 118%; inhibition of release of myeloperoxidase (Rat PMNL [2]): dose dependent inhibition
